Patent US20150237838A1, “REGULATION OF INSECT POPULATIONS” (CALIFORNIA INSTITUTE OF TECHNOLOGY, priority 2014, published 2015)

Tests used:
[1] = tested on: genetically engineered insects containing both antibiotic resistance markers; assay: Sex selection of flies carrying combined vector (Opie2-tra-neo and Opie2-dsx-pac); assay type: in vivo, Drosophila
Source text: The expanded insect population containing both males and females was transferred to a diet supplemented with puromycin.

[2] = tested on: Drosophila wild-type larvae; assay: Antibiotic toxicity test, wild-type larvae fed antibiotic-supplemented diet; assay type: in vivo, Drosophila melanogaster; conditions: for first instar death: larvae fed antibiotic-supplemented diet at around 1 mg/ml, n=10,000; for concentration at which antibiotic was highly toxic: wild-type larvae fed increasing amounts in diet
Method: As proof of principle, an embodiment of this system was developed for the fruit fly Drosophila melanogaster. As an initial test of antibiotic toxicity, Drosophila wild-type larvae were separately fed increasing amounts of either G418 or puromycin. Both antibiotics were highly toxic around 1 mg/ml such that when larvae were fed antibiotic-supplemented diet at this concentration, 100% first instar death was observed (n=10,000). Thus, these two antibiotics can be used as selection molecules in this system.

[3] = tested on: Opie2-tra-neo expressing flies; assay: Sex selection of Opie2-tra-neo flies on G418 diet; assay type: in vivo, Drosophila melanogaster; conditions: diet with increasing concentrations of G418; at ~5 mg/ml; n=2,000
Source text: (§1) The possibility of utilizing the endogenous sex determination machinery to promote sex-specific antibiotic resistance-based selection was next tested. Sex-specific introns dsx and tra were incorporated into the coding frames of the antibiotic resistance genes pac and neo, respectively, and two types of flies were generated, one type expressing Opie2-tra-neo and another type expressing Opie2-dsx-pac. The dsx intron can be excised by splicing only in males and the tra intron can be excised by splicing only in females. This precise sex-specific splicing of these two introns is dictated by the sex determination machinery of the fly. […] The Opie2-tra-neo expressing flies were fed diet containing increasing concentrations of G418 resulting in 100% female progeny at ˜5 mg/ml (n=2,000). The Opie2-dsx-pac expressing flies were fed diet containing increasing concentrations of puromycin resulting in 100% male progeny at ˜2 mg/ml (n=500).

[4] = tested on: transgenic flies expressing the pac gene; assay: Antibiotic diet fed to transgenic flies expressing pac gene; assay type: in vivo, Drosophila; conditions: diet with increasing concentrations of puromycin; pac under Opie2 promoter
Source text: To determine if the toxicity of puromycin and neomycin could be negated, antibiotic resistance genes pac and neo were used. Two types of transgenic flies were generated each expressing one type of antibiotic resistance gene under the control of the promoter Opie2. One type of transgenic fly expressed the pac gene and the other expressed the neo gene. Transgenic flies were fed a diet supplemented with increasing concentrations of either puromycin or G418, respectively. […] Additionally, these transgenic flies were quite healthy with high fitness. Thus, the pac and neo genes could be used to counter the toxicity of […], respectively.

[5] = tested on: flies expressing Opie2-tra-pac; assay: Sex selection of Opie2-tra-pac flies on puromycin diet; assay type: in vivo, Drosophila melanogaster; conditions: larvae fed diet with increasing concentrations of puromycin; n=500
Source text: Thus, the sex specific introns can be interchangeably used with either antibiotic resistance genes to select for either males or females.

[6] = tested on: Opie2-dsx-pac expressing flies; assay: Sex selection of Opie2-dsx-pac flies on puromycin diet; assay type: in vivo, Drosophila melanogaster; conditions: diet with increasing concentrations of puromycin; at ~2 mg/ml; n=500
Source text: as §1

insects = conditions: tetracycline in diet; Zeh et al., 2012; cited from earlier work

SMILES	females selected ([1]; diet supplemented with increasing concentrations of G418 (FIG. 3))	first instar death [2]	concentration at which antibiotic was highly toxic [2]	female progeny [3]	toxicity of antibiotic in resistance-gene flies [4]	males selected ([1]; diet supplemented with increasing concentrations of puromycin (FIG. 2))	sex-selective killing of progeny ([1]; puromycin-supplemented diet, first instar larval stage)	female progeny [5]	male progeny [6]	side effect on insects (fitness) (insects)
CN[C@@H]1[C@@H](O)[C@@H](O[C@@H]2[C@@H](O)[C@H](O[C@H]3O[C@H]([C@@H](C)O)[C@@H](O)[C@H](O)[C@H]3N)[C@@H](N)C[C@H]2N)OC[C@]1(C)O [G418]	100%	100%	around 1 mg/ml	100%	–	–	–	–	–	–
COc1ccc(C[C@H](N)C(=O)N[C@H]2[C@@H](O)[C@H](n3cnc4c(N(C)C)ncnc43)O[C@@H]2CO)cc1 [puromycin]	–	100%	around 1 mg/ml	–	negate the toxicity	100%	female progeny were selectively killed	100%	100%	–
CN(C)[C@@H]1C(O)=C(C(N)=O)C(=O)[C@@]2(O)C(O)=C3C(=O)c4c(O)cccc4[C@@](C)(O)[C@H]3C[C@@H]12 [tetracycline]	–	–	–	–	–	–	–	–	–	large fitness cost
